Data set [1] is described as follows: Determination of reduction potential by cyclic voltammetry. Conditions: for Epc(V): cyclic voltammetry in dimethylformamide at Hg, vs. Ag/AgNO3; for Reduction process: cyclic voltammetry in dimethylformamide. Type of data set: physicochemical. How it is done: The reduction potentials of misonidazole, ^99TcO(PnAO), and ^99Tc-hypoxia-localizing tracers were determined by cyclic voltammetry (C.V.) in dimethylformamide. […] The reference electrode was Ag/AgNO3 with an acetonitrile filling solution saturated with LiCl. The counter electrode was a platinum wire. Voltamograms at mercury were determined at scan rates of 50, 100, 200, and 500 mV/s.
The solutions used in C.V. studies contained test sample at a concentration of 0.2-0.7 mM and tetrabutylammonium tetrafluoroborate (Bu4NBF4) or tetrabutylammonium hexafluorophosphate (Bu4NPF6) supporting electrolyte at a concentration of 0.1M. The solution was deoxygenated by bubbling solvent-saturated nitrogen or argon through the solution for 15 minutes. Variations in the reference potential were accounted for by determining the C.V. of a Ru(acac)3 standard on a daily basis.

Another data set concerns the target T1, xanthine oxidase (Bos taurus, UniProt P80457).
T1 construct: purchased Boeringer (sic; Boehringer)
As to the kind of experiment: Reduction of the Tc nitroimidazole complexes by xanthine oxidase. Type of data set: biochemical. Conditions: xanthine oxidase 1.25 units, hypoxanthine, pH 7.4, anaerobic (argon), up to 7 hours. The text has this:
The enzyme xanthine oxidase (in the presence of xanthine or hypoxanthine) is known to reduce the nitro group of such nitroimidazole-containing compounds as misonidazole and metronidazole (see for example P. D. Josephy, B. Palcic and L. D. Skarsgard,. “Reduction of Misonidazole and its Derivatives by Xanthine Oxidase”, Biochem. Pharmacol., 1981, 30, 849), and it has been postulated that such nitro reduction under anaerobic conditions is responsible for the selective trapping of these compounds in hypoxic tissue. Thus, a technetium or rhenium containing nitroimidazole complex should be capable of being reduced by xanthine oxidase under anaerobic conditions in the presence of hypoxanthine.
To a 2.5 mL quartz cuvette was added 0.25 micromoles of the ^99Tc-nitroimidazole complex of Example 6 or 6b in 125 μL of dimethylformamide, 1 mL of 0.01M hypoxanthine in pH 7.4 sodium phosphate buffer (0.1M), and 0.875 mL of 0.1M sodium phosphate buffer (pH 7.4) that contained 20 mg/L of disodium ethylenediamine tetraacetic acid (EDTA). The cuvette was sealed with a rubber septum, and purged with argon for 15 minutes to remove oxygen. To this was added 1.25 units of the enzyme xanthine oxidase (Boeringer) in 0.5 mL of deoxygenated pH 7.4 phosphate buffer. The cuvette was inverted to mix, and the UV/visible spectrum of the solution was recorded from 280 to 600 nm at 15 minute intervals.
It is believed that the disappearance of this nitro absorbance is due to reduction of the nitro group by xanthine oxidase.
In a parallel control reaction, the reagents above were mixed in the same fashion, but the ^99Tc complex of 3,3,9,9-tetramethyl-4,8-diazaundecane-2,10-dione dioxime (prepared by the method of Jurisson et al., Inorg. Chem., 1986, 25, 543) was substituted for the technetium complexes of Examples 6 or 6b.

The subject of data set [2] is hypoxic ischemic border zone. As to the kind of experiment: Rabbit focal myocardial ischemia model (LAD occlusion), double-label autoradiography. The format is in vivo. Conditions: permanent LAD coronary artery ligation, intravenous tracer, heart sections. How it is done:
A model of focal myocardial ischemia in the rabbit was developed, using permanent ligation of the left anterior descending (LAD) coronary artery. The model consisted of two studies. In the first, relative regional myocardial blood flow (MBF) and relative regional myocardial rate of glucose metabolism (MMRgl) were determined by autoradiography using a double-label study with the flow tracer ^99mTcCl(CDO)3MeB (R. K. Narra et al., J. Nucl. Med., 1989; 30:1830-1837) and ^14C-deoxy-glucose for MMRgl (L. Sokoloff et al., J. Neurochem., 1977, 28, 897-916). ^14C-deoxyglucose and the ^99mTc-hypoxia-localizing tracer were administered to a second group of rabbits with LAD coronary artery occlusion.
After the surgical preparation and 20 minutes of LAD occlusion, ^14C-deoxyglucose (130-150 μCi) was injected as an intravenous bolus, and timed arterial blood samples were obtained. Twenty-five minutes later, ^99mTcCl(CDO)3MeB (10-12 mCi) was administered intravenously. Five minutes later, the rabbits were sacrificed by intravenous injection of Nembutal and potassium chloride. The heart was excised, frozen in liquid Freon-22, and 20 μm coronal sections obtained with a Microtome. Autoradiographs were obtained on all sections. For the first exposure (˜14 hours duration) of Kodak XAR film, extra heavy duty aluminum foil was interposed between the tissue and film to block completely the radiation emanating from ^14C to obtain the MBF information derived from ^99mTcCl(CDO)3MeB alone. After three days (to allow for decay of ^99mTc); a second autoradiograph was obtained without foil. The second exposure lasted 6-8 days, and,provided an image of the regional distribution of ^14C-deoxyglucose.
In a separate experiment using the rabbit LAD occlusion model and the double-label autoradiography procedures described above, the performance of the ^99mTc complex of the ligand described in Example 1 was compared to that of ^14C-misonidazole.

The subject of data set [3] is Calcium-tolerant ventricular myocytes. As to the kind of experiment: Isolated cardiac myocyte studies, retention of radioactivity. Type of data set: cell-based, male Sprague Dawley rats. Conditions: isolated myocytes. The text has this: Calcium-tolerant ventricular myocytes were isolated from hearts of male Sprague Dawley rats (200 g) according to the procedure of Wittenberg and Robinson (B. A. Wittenberg and T. F. Robinson, Cell Tissue Res., 216: 231, 1981) with modifications described previously (W. Rumsey, C. Schlosser, E. M. Nuutinen, M. Robiolio and D. F. Wilson, J. Biol. Chem., 265 (26): 15392, 1990). Cells were used immediately following morphological analysis (using a hemocytometer) of viability and were maintained at 37° C. during the experiments. The number of quiescent, rod shaped cells ranged from 70-90% within a total population of 5-9×10^6 cells.
The isolated myocytes were maintained in either a normoxic, hypoxic or anoxic state. Hypoxia was induced by providing an atmosphere of argon atop of the cells and sealing the flask during the incubation period. Glucose oxidase plus catalase (5/5 mg) was added to argon treated cells to provide anoxia. Cells were suspended (6.5-7.5×10^4 cells/ml) in isolation media and aliquots were added to incubation vials maintained at 37° C.
After incubation with a test compound, myocytes were deproteinated with 1% ice-cold perchloric acid and centrifuged at 12,000 rpm for 30 sec. The supernatent was separated from the pellet and each counted using a LKB 1282 gamma counter. Alternatively, myocytes were separated from the suspending media by passing the cells through 99% dibutyl phthalate by centrifugation at 12,000 rpm for 30 sec. The three phases were separated and counted as described above. Results for the Tc-99m complex of the compound in Example 1 are given below:
Values represent means ±S.E.M. for the number of experiments noted in the parentheses. The values are the percent of total radioactivity represented by each case. PCA pellet=perchloric acid-precipitated pellet which represents the activity associated with proteins/membranes. Cell pellet=whole cells passed through a layer of dibutyl phthalate (oil).
Several Tc-99m complexes were examined in isolated myocytes using the protocol described above. The percentage of activity retained in the cell pellet was determined under anoxic and normoxic states.

The next data set has as its system hypoxic border zone. As to the kind of experiment: Rat focal cerebral ischemia model (MCA occlusion), double-label autoradiography. The format is in vivo, spontaneously hypertensive rats (SHR). Conditions: SHR, injected 1 hour or five days after MCA occlusion, both time points. The method, then:
A model of focal cerebral ischemia involving tandem occlusion of the internal carotid artery and the ipsilateral middle cerebral artery (MCA) in spontaneously hypertensive rats (SHR) was characterized using the double-label autoradiography procedure described in Example 10. […] Following surgery, which was performed under Halothane anesthesia, the rats were allowed to recover and one hour after the MCA occlusion, ^14C-deoxyglucose was injected as an IV bolus and timed arterial samples were obtained. Twenty-five minutes after ^14C-deoxyglucose injection, ^99mTcCl(DMG)32MP was injected as an IV bolus and the rat was sacrificed 15 seconds later. The brain was rapidly removed and sections and autoradiograms were obtained as described in Example 10. As found in Example 10 for the rabbit LAD occlusion model, the ischemic territory was bordered by a rim of tissue in which glycolysis was elevated. […] Nevertheless, it was clear that the ischemic region is surrounded by a border zone of increased glycolysis. In a second series of experiments, the ^99mTc complex of the ligand described in Example 1 and ^14C-deoxyglucose were co-injected 1 hour or five days after MCA occlusion.

These results are taken from US6958141B2, “Rhenium and technetium complexes containing a hypoxia-localizing moiety” (Bracco International B.V., priority 1991, dated 2005).

T1 sequence (P80457 whole entry): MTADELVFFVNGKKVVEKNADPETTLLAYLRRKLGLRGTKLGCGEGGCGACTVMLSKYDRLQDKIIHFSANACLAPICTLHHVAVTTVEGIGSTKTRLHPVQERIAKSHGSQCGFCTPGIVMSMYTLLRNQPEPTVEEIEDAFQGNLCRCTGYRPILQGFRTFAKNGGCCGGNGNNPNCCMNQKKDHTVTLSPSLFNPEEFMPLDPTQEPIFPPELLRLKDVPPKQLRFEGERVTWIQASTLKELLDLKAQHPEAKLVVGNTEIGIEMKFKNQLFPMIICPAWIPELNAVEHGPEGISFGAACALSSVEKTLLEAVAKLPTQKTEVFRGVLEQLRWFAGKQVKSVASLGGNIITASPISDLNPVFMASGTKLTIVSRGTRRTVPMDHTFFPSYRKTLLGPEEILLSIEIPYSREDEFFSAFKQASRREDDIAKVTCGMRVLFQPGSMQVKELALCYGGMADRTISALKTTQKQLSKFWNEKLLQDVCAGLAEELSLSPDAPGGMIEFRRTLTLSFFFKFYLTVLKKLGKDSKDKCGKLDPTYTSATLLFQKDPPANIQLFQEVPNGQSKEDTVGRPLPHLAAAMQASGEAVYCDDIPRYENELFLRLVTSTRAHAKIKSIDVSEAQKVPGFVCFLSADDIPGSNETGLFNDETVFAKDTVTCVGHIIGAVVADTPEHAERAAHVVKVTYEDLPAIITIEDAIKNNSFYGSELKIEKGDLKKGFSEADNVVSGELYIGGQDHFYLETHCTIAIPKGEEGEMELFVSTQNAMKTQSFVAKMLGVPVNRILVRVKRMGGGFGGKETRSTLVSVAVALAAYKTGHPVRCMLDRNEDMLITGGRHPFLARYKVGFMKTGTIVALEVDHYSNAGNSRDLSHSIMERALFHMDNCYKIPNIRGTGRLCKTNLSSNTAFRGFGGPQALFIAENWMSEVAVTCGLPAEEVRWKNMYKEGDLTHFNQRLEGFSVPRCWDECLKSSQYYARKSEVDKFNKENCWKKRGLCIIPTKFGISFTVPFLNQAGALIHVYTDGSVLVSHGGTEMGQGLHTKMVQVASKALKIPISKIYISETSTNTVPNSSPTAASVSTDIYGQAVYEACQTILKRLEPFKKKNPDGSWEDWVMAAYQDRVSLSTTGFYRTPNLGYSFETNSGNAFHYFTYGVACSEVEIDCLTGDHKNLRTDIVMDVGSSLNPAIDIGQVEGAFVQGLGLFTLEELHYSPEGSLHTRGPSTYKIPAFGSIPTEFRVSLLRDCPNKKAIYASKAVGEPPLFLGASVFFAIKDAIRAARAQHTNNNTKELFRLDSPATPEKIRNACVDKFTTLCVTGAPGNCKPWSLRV

As for `CC1=[N+](O)[99Tc-]23(=[O])[N](CCC[N]2C1(C)C)C(C)(C)C(Cn1ccnc1[N+](=O)[O-])=[N+]3[O-]` [Example 6, [^99Tc]Oxo[[3,3,9,9-tetramethyl-1-(2-nitro-1H-imidazo-1-yl)-4,8-diazaundecane-2,10-dione dioximato]-(3-)-N,N′,N″,N′″]technetium(V)], in data set [1] (first or only reduction listed), the “Epc(V)” value is on record as −1.49 V and the Reduction process entry is “reversible”. In data set [1] (second reduction listed), the “Epc(V)” value is recorded as −1.99 V and the Reduction process result is given as “irreversible”. In addition, on xanthine oxidase, the “absorbance peak at approximately 320 nm (nitroimidazole functionality), UV/visible spectral change” value (“absorbance peak … UV/visible spectral change” below) was “decreased in intensity”.

Regarding `CC1=[N+](O)[99Tc-]23(=[O])[N](CC(O)C[N]2C1(C)C)C(C)(C)C(Cn1ccnc1[N+](=O)[O-])=[N+]3[O-]` (stereo not shown) [Example 6b, [^99Tc]Oxo[[6-hydroxy-3,3,9,9-tetramethyl-(2-nitro-1H-imidazo-1-yl)-4,8-diazaundecane-2,10-dione dioximato]-(3-)-N,N′,N″,N′″]technetium (V)], in data set [1] (first or only reduction listed), the “Epc(V)” value is −1.48 V and the Reduction process result is reported as “reversible”. For the same compound, in data set [1] (second reduction listed), the “Epc(V)” value is listed as −1.96 V and the Reduction process entry was “irreversible”. The “absorbance peak … UV/visible spectral change” value at xanthine oxidase is listed as “decreased in intensity”.

Take `CC1=[N+]([O-])[99Tc-]23(=[O])[N](CCC[N]2C(C)(C)C(C)=[N+]3O)C1(C)C` [^99TcO(PnAO), Tc(V) Oxo 3,3,9,9-tetramethyl-4-8-diazaundecane-2,10-dione-dioxime, reference compound]: in data set [1] (first or only reduction listed), the “Epc(V)” value is recorded as −2.15 V and the Reduction process result was “irreversible”. Besides, the “absorbance peak … UV/visible spectral change” value at xanthine oxidase is “no spectral changes were observed over a period of 7 hours”.

As to `CC(=NO)C(C)(C)NCC(C)CNC(C)(C)C(C)=NO` (stereo not shown) [^99mTc Complex of 6-methyl-PnAO, ^99mTc-complexes of 6-methyl PnAO (3,3,6,9,9-pentamethyl-4,8-diazaundecane-2,10-dione dioxime), metal not drawn, reference compound], the “regional myocardial distribution pattern (autoradiography)” value in data set [2] was “no differentiation of ischemic and non-ischemic regions”. The Anoxia/normoxia ratio in data set [3] (% in Cell Pellet) came out at 1.3. In data set [3] (several Tc-99m complexes), the “% in Cell Pellet, Anoxia” value is 22.7 (n = 1) % and the “% in Cell Pellet, Normoxia” value is 17.4 (n = 1) %.

With ^14C-deoxyglucose [reference compound], the “regional myocardial distribution pattern (autoradiography)” value in data set [2] is “high uptake in the ischemic border zone”. In addition, the “uptake in brain autoradiograms” value with hypoxic border zone was “increased uptake in the hypoxic border zone relative to surrounding normoxic tissue”.
